Where two headings read alike, the source gives them in different places.
What was measured:
[1] = Brain and plasma concentrations in mouse by HPLC/MS/MS; type: in vivo; details: 2.5 mg/kg IV
Method: Brain and plasma concentrations of select ROCK inhibitors were evaluated in mouse by HPLC/MS/MS at 15 min and 2 hrs following 2.5 mg/kg IV drug administration.

[2] = tested on: ppMlc (T18/S19) and pMypt (T853) in Svec 4-10 mouse endothelial cells; assay: Western blot of Svec 4-10 cell lysates; type: cell-based; details: 110 nM, 120 min
Method: FIG. 1d. Western blot of SVEC4-10 cell lysates to visualize ppMlc (T18/S19) & pMYPT (T853) levels following treatment with the compound of Example 2 for 120 min. SVEC4-10 cells were treated with the compound and phosphorylated proteins were visualized by western blotting.
Compounds ROCK activities were tested in additional cell types. Svec 4-10 mouse endothelial cells were treated with the compound of Example 2 for 120 min and ppMlc (T18/S19) and pMypt (T853) levels were visualized by western blotting.

[3] = tested on: human oligodendrocyte/neuron progenitor cells; assay: Chondroitin Sulfate Proteoglycan (CSPG) assay on human oligodendrocyte/neuron progenitors; type: cell-based; details: 1 μM and 3 μM, 72 hour
Method: Chondroitin Sulfate Proteoglycan (CSPG) assay on human oligodendrocyte/neuron progenitors in 96-well plate. […] Cells were seeded on the coated plates at a density of 6,000 cells per well in expansion media. The following day the expansion media was replaced with fresh spontaneous differentiation media containing testing compounds. Cells were imaged and neurite length was analyzed by IncuCyte S3 Live Cell Analysis System every 4 hours.

[4] = tested on: histamine-induced vascular permeability; assay: Histamine-induced vascular permeability model in mice; type: in vivo, mouse; details: single oral dose 1 hr. prior to histamine injection
Method: Histamine-induced vascular permeability model in mice: 7-8 weeks old Balb/c female mice were acclimated at least 3 days, and randomly assigned to groups. Animals were injected i.v. with 1% Evans Blue at a dose 100 μl/mouse. 10 minutes later animals in disease groups were given 1 μg of histamine in 20 μl PBS intradermally on the back and sacrificed 20 minutes after administration. 20 μL PBS were injected intradermal into the animal back in sham control. Vehicle and test articles were dosed via oral gavage accordingly. Positive control salbutamol was administered 15 minutes before Evans blue. 20 minutes post challenge with histamine, animals were euthanized. The skin was then inverted, the lesion diameters were measured. The area of the lesion was calculated and expressed in square millimeters. Following diameter measurements, Evan's Blue dye was extracted from the skin tissue and the optical density was measured. Data are calculated against a spiked in Evan's Blue standard curve. The extent of compound efficacy was quantitated by calculating both the overall skin spot area and the amount of Evans Blue dye permeating the skin. 20 Minutes post challenge with histamine, animals were euthanized, the lesion diameters were measured. The area of the lesion was calculated and expressed in square millimeters. […]

[5] = tested on: ACTA2-promoter-driven-luciferase in NIH3T3 cells; assay: NIH3T3 Acta2-promoter driven-luciferase assay; type: cell-based; details: Mus musculus, plus TGFβ1, 24 hr, read-out: NIH3T3, Acta2-luc, IC50
Procedure, shortened: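 Stable NIH3T3 line carrying luciferase reporter under human ACTA2 promoter (−1000-1 bp); confluent cells given 9-point compound dilutions with TGFβ1 for 24 hr. Lysed cells read for luciferase; IC50 from nonlinear regression fit.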

[6] = tested on: bleomycin induced lung fibrosis; assay: Bleomycin induced lung fibrosis in mice (therapeutic administration); type: in vivo, mouse; details: oral once daily Day 7 to Day 20
Method: Bleomycin induced lung fibrosis in mice (therapeutic administration): Male C57B/L6 mice were housed for acclimation for no less than 7 days. After acclimation period, animals were randomly assigned to treatment groups. On day 0, mice were anesthetized with 5% isoflurane by inhalation for 10-15 mins and then suspended by their front teeth on a wire attached to a fixed animal operating plate. 50 μL of saline or bleomycin solution was administered via intratracheal instillation. Mice in treatment groups were intratracheally instilled with bleomycin hydrochloride (BLM) 2.0 U/kg (mg/kg) in sterile saline. On day 7 following bleomycin administration, half of the animals in vehicle group were sacrificed to establish a baseline for the level of fibrosis at the treatment initiation. Mice in normal control group received saline by p.o. once daily from Day 7 to Day 20. Treatment group mice received the compound dosed orally once daily from Day 7 to Day 20. On Day 20, 2-3 hours posted the last dose, all mice were sacrificed. Lungs were gently lavaged via the tracheal cannula with 0.8 mL of PBS containing 1% BSA and 0.6 mM EDTA. […] The activity of ROCK inhibitors in attenuating pulmonary fibrosis in a therapeutic dosing setting was assessed in a bleomycin-induced model, following intratracheal bleomycin installation to induce lung tissue damage and consequent fibrosis of the lung. […]

[7] = molecular target: recombinant ROCK2 (amino acids 1-552) (Homo sapiens (Human), UniProt O75116); assay: Z'-lyte kinase assay, ROCK2; type: biochemical
Procedure, shortened: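 Inhibition of recombinant human ROCK2 (residues 1-552, sourced from ThermoFisher Scientific) was assessed in vitro with the Z'-lyte kinase kit. Kinase activity with compound was normalized to DMSO control to give percent inhibition. IC50s came from 9-point 2-fold serial dilutions fitted by nonlinear regression in GraphPad Prism.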

recombinant ROCK2 (amino acids 1-552), sequence (O75116 1-552): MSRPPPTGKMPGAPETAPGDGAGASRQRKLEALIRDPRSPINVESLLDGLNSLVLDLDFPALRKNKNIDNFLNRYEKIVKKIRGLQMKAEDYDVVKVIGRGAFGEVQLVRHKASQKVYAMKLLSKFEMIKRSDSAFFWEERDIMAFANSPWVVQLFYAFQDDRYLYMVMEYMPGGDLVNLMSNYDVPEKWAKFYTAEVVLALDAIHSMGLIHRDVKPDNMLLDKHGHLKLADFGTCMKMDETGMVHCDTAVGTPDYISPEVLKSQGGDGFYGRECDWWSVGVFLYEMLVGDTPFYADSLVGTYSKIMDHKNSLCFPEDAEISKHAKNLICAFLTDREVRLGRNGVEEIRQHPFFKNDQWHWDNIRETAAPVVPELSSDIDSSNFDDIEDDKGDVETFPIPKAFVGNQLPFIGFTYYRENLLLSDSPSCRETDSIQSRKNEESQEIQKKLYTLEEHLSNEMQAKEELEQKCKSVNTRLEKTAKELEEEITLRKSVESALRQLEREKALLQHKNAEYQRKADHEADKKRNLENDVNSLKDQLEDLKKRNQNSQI

concentration at 0.25 hr ([1]; brain, 0.25 hr, read-out: Mean Conc. at 0.25 hr, Brain): 541 ng/g | concentration at 2 hr ([1]; brain, 2 hr, read-out: Mean Conc. at 2 hr, Brain): 76.6 ng/g | concentration at 0.25 hr ([1]; plasma, 0.25 hr, read-out: Mean Conc. at 0.25 hr, Plasma): 268 ng/mL | concentration at 2 hr ([1]; plasma, 2 hr, read-out: Mean Conc. at 2 hr, Plasma): 25.7 ng/mL | Kp at 0.25 h ([1]; brain/plasma, 0.25 hr, read-out: Mean Brain/Plasma Ratio at 0.25 hr): 2.01 | Kp at 2 h ([1]; brain/plasma, 2 hr, read-out: Mean Brain/Plasma Ratio at 2 hr): 2.99 | IC50 [7]: 4 nM
Compound: CNC(C(=O)Nc1ccc(-c2cn[nH]c2)cc1)c1cccc(OC)c1 (stereo not drawn) [Example 2, N-(4-(1H-pyrazol-4-yl)phenyl)-2-(3-methoxyphenyl)-2-(methylamino)acetamide]
phosphorylation of ROCK targets MLC and MYPT1 [2]: efficiently blocked phosphorylation | CSPG mediated neurite outgrowth arrest [3]: significantly counteract | vascular permeability induced by histamine (Evan's Blue extravasation) [4]: blocked the vascular permeability induced by histamine in a dose dependent manner | IC50 [5]: 352 nM | collagen amounts in the lungs (Masson's trichrome) [6]: significantly lower

Source: patent publication US11479533B2, “Inhibitors of Rho associated coiled-coil containing protein kinase” (KADMON CORPORATION, LLC, priority 2017, dated 2022)
